Results reported in US7632952B2, “Benzothiazoles and the use thereof as medicaments” (Aventis Pharma S.A., priority 2004, dated 2009).
Structures can show the parent of a compound that is named as a salt.

What was measured:
[1] = system: HeLa; test: HeLa proliferation; type: cell-based; conditions: Homo sapiens, read-out: HeLa proliferation EC50 (nM) DG
[2] = biological target: CDK4/cyclin D1 (Homo sapiens, UniProt P11802); test: CDK4/cyclin D1 Flashplate test in 96-well format; type: biochemical
Method: 2. CDK4/cyclin D1 Protocol:
Purification of the CDK4-HA/cyclin D1-(His)6 Complex by IMAC (Immobilized Metal Affinity Chromatography):
Two recombinant baculoviruses bearing the human sequences coding, respectively, for CDK4-HA (C-terminal fusion with the hemaglutinin tag) and for cyclin D1-(His)6 are used to coinfect insect Sf9 cells. Sixty hours after the start of the coinfection, the cells are harvested by centrifugation and then frozen at −20° C. until the time of use.
CDK4/cyclin D1 Flashplate Test in 96-Well Format
A test in 96-well “Flashplate” plates coated with streptavidin is used to evaluate the inhibition of the CDK4/cyclin D1 kinase complex by the products of the invention. To perform this test, the biotinylated peptide substrate, a fragment of the pRb protein (biotinyl-[…]-amide) is dissolved at a concentration of 2 mM in kinase buffer (HEPES/NaOH 50 mM, NaCl 1 mM, MgCl2 5 mM, pH 7.5) in order to constitute a stock solution stored at −20° C. in the form of 110 μl aliquots. On the day of the experiment, an aliquot of this solution is thawed and diluted in kinase buffer containing 1 mM of dithiothreitol, and added to the buffer extemporaneously, in order to obtain a final peptide concentration of 2.571 μM. 70 μl of this solution are added to each well of the Flashplate in order to obtain a final substrate concentration of 1.8 μM during the enzymatic reaction, performed in a final volume of the reaction medium of 100 μl (cf. below). Intermediate dilutions of inhibitors (products of the invention) at various concentrations are prepared in DMSO from stock solutions at 10 mM in separate tubes. 1000 μM, 333.3 μM, 111.1 μM, 37.03 μM, 12.35 μM, 4.11 μM and 1.37 μM dilutions are thus prepared. 1 μl of each of these solutions (or 1 μl of DMSO for the controls) is then transferred into the wells of the test plate. Into each well are then added 19 μl of a solution of a mixture of adenosine triphosphate (ATP) and of ATPy^33P in the kinase buffer at a concentration of 5.26 μM of ATP total and 78.9 μCi/ml of ^33P. The enzymatic reaction is triggered by addition of 10 μl per well of a solution of CDK4/cyclin D1 at 250 nM in the kinase buffer containing 1 mM of dithiothreitol (or 10 μl of kinase buffer containing 1 mM of dithiothreitol for the reaction blanks).
(§1) After addition of all the reagents, the test plate is incubated at 30° C. with orbital stirring at 650 rpm. After the incubation, the plate is washed three times with 300 μl per well of PBS (phosphate-buffered saline, pH=7.4, without calcium or magnesium, reference 10010-015, Gibco BRL). The incorporation of ^33P into the substrate peptide is quantified by scintillation counting using a Packard Topcount.NXT machine. The inhibitory activity of the products of the invention is evaluated by measuring the inhibitory concentration that allows a 50% reduction in the enzymatic activity (IC50).

[3] = biological target: CDK2/cyclin E (Homo sapiens, UniProt P24941); test: CDK2/cyclin E Flashplate test in 96-well format; type: biochemical; conditions: read-out: CDK2 IC50
Method: 1. Protocol CDK2/cyclin E:
Purification of the CDK2/cyclin E-(His)6 Complex by IMAC (Immobilized Metal Affinity Chromatography):
Two recombinant baculoviruses bearing the human sequences coding, respectively, for CDK2 and cyclin E (the latter comprising a C-terminal hexahistidine tag) are used to coinfect insect Sf21 cells. Two to three days after the start of coinfection, the cells are harvested by centrifugation and then stored at −40° C. until the time of use. After thawing and mechanical lysis of the cells, the complex present in the lysis supernatant is purified by affinity chromatography on nickel (IMAC), and stored at −80° C.
CDK2/cyclin E Flashplate Test in 96-Well Format
A format in 96-well plates coated with streptavidin is used to test the activity of the compounds on the kinase activity of CDK2/cyclin E.
To perform this test, the biotinylated peptide substrate, a fragment of the pRb protein (biotinyl-[…]-OH) is dissolved at a concentration of 1 mM in kinase buffer (HEPES/NaOH 50 mM, NaCl 1 mM, MgCl2 5 mM, pH 7.5) in order to constitute a stock solution stored at −20° C. in the form of 110 μl aliquots. On the day of the experiment, an aliquot of this solution is thawed and diluted in kinase buffer containing 1 mM of dithiothreitol, and added to the buffer extemporaneously, in order to obtain a concentration of 14.3 μM. 70 μl of this solution are added to each well of the Flashplate in order to obtain a final substrate concentration of 10 μM during the enzymatic reaction, performed in a final volume of the reaction medium of 100 μl (cf. below).
Intermediate dilutions of inhibitors (products of the invention) at various concentrations are prepared in DMSO from stock solutions at 10 mM in separate tubes. 1000 μM, 333.3 μM, 111.1 μM, 37.03 μM, 12.35 μM, 4.11 μM and 1.37 μM dilutions are thus prepared. 1 μl of each of these solutions (or 1 μl of DMSO for the controls) is transferred into the wells of the test plate.
Into each well are then added 19 μl of a solution of a mixture of adenosine triphosphate (ATP) and of ATPy^33P in the kinase buffer at a concentration of 5.26 μM of ATP total and 52.6 μCi/ml of ^33P. The enzymatic reaction is triggered by addition of 10 μl per well of a solution of CDK2/cyclin E at 200 nM in the kinase buffer containing 1 mM of dithiothreitol (or 10 μl of kinase buffer containing 1 mM of dithiothreitol for the reaction blanks).
After addition of all the reagents, the plate is incubated at 30° C. with orbital stirring at 650 rpm.
as §1, with “When” for “After addition of all”, “incubation” for “reagents, the test plate”, “complete,” for “incubated at 30° C. with orbital stirring at 650 rpm. After the incubation,”, “the” for “the substrate”

CDK4/cyclin D1, sequence (P11802 whole entry): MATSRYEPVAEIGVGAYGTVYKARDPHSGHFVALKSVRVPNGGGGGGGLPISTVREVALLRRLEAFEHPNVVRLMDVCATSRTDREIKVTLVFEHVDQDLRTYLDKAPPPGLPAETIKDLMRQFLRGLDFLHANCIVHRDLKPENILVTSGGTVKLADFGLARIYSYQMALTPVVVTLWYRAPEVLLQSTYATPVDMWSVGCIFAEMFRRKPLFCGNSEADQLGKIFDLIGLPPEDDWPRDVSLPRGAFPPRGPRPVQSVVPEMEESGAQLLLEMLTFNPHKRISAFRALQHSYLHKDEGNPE
CDK4/cyclin D1, sequence (P24385 whole entry partner): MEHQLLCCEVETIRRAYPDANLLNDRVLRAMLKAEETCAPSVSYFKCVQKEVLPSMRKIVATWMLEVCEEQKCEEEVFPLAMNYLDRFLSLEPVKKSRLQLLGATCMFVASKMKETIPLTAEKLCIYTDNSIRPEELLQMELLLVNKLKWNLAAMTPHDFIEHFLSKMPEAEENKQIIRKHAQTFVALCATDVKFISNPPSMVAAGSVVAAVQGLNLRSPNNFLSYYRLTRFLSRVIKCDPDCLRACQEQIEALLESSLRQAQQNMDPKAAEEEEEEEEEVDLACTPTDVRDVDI

Structure (SMILES)	EC50 [1]	IC50 [2]	IC50 [3]
CC(C)N(CCNc1ccc(S(=O)(=O)Oc2ccc3nc(NC(=O)CCCCCN)sc3c2)cc1)C(C)C [Example 49, 4-(2-diisopropylaminoethylamino)benzenesulfonic acid 2-(6-aminohexanoylamino)benzothiazol-6-yl ester hydrochloride]	2700 nM	328 nM	183 nM
O=C(Nc1nc2ccc(OS(=O)(=O)c3ccc(NCCCCn4cnc(-c5cccnc5)c4)cc3)cc2s1)C1CC1 [Example 13, 4-[4-(4-pyrid-3-ylimidazol-1-yl)butylamino]-benzenesulfonic 2-(cyclopropanecarbonylamino)benzothiazol-6-yl ester]	841 nM	6860 nM	678 nM
CC(C)NCCNc1ccc(S(=O)(=O)Oc2ccc3nc(NC(=O)C(C)C)sc3c2)cc1 [Example 75, 4-(2-isopropylaminoethylamino)benzenesulfonic acid 2-isobutyrylaminobenzothiazol-6-yl ester; compound with trifluoroacetic acid]	195 nM	874 nM	445 nM
CC(C)NCCNc1ccc(S(=O)(=O)Oc2ccc3nc(NC(=O)CCC4CCNCC4)sc3c2)cc1 [Example 24, 4-(2-Isopropylaminoethylamino)benzenesulfonic acid 2-(3-piperid-4-ylpropionylamino)benzothiazol-6-yl ester hydrochloride]	> 12500 nM	1670 nM	864 nM
CC(C)CNc1ccc(S(=O)(=O)Oc2ccc3nc(NC(=O)CCC4CCNCC4)sc3c2)cc1 [Example 29a, 4-Isobutylaminobenzenesulfonic acid 2-(3-piperid-4-ylpropionyl-amino)benzothiazol-6-yl ester hydrochloride]	1830 nM	573 nM	257 nM
CC(C)NCCNc1ccc(S(=O)(=O)Oc2ccc3nc(NC(=O)C4CCC4)sc3c2)cc1 [Example 77, 4-(2-isopropylaminoethylamino)benzenesulfonic acid (2-cyclobutanecarbonylamino)benzothiazol-6-yl ester; compound with trifluoroacetic acid]	179 nM	1010 nM	419 nM
CCC(=O)Nc1nc2ccc(OS(=O)(=O)c3ccc(NCCNC(C)C)cc3)cc2s1 [Example 71, 4-(2-isopropylaminoethylamino)benzenesulfonic acid 2-propionylaminobenzothiazol-6-yl ester; compound with trifluoroacetic]	2170 nM	424 nM	175 nM

Now from value to compound:

EC50 [1]	IC50 [2]	IC50 [3]	Structure (SMILES)
8960 nM	368 nM	161 nM	CC(C)CNc1ccc(S(=O)(=O)Oc2ccc3nc(NC(=O)CCCCCCCN)sc3c2)cc1 [Example 29b, 4-Isobutylaminobenzenesulfonic acid 2-(8-aminooctanoylamino)-benzothiazol-6-yl ester hydro-chloride]
631 nM	899 nM	86 nM	O=C(Nc1nc2ccc(OS(=O)(=O)c3ccc(NC4CCCC4)cc3)cc2s1)C1CC1 [Example 8, 4-cyclopentylaminobenzenesulfonic 2-(cyclo-propanecarbonylamino)benzothiazol-6-yl ester]
> 12500 nM	3890 nM	2640 nM	O=C(CCC1CCNCC1)Nc1nc2ccc(OS(=O)(=O)c3ccc(NCCNCCO)cc3)cc2s1 [Example 25c, 4-[2-(2-Hydroxyethyl-amino)-ethylamino] benzenesulfonic acid 2-(3-piperid-4-ylpropionyl-amino)benzothiazol-6-yl ester hydrochloride]
296 nM	236 nM	75 nM	CC(C)N(CCNc1ccc(S(=O)(=O)Oc2ccc3nc(NC(=O)CCc4cccnc4)sc3c2)cc1)C(C)C [Example 62, 4-(2-diisopropylaminoethylamino)benzenesulfonic acid 2-(3-pyrid-3-ylpropionylamino)benzothiazol-6-yl ester hydrochloride]
1580 nM	> 10000 nM	123 nM	O=C(Nc1nc2ccc(OS(=O)(=O)c3ccc(F)cc3)cc2s1)C1CC1 [Example 7, 4-fluorobenzenesulfonic acid 2-(cyclopropane-carbonylamino)benzothiazol-6-yl ester]
7550 nM	253 nM	209 nM	CC(C)N(CCNc1ccc(S(=O)(=O)Oc2ccc3nc(NC(=O)CCCCCCCN)sc3c2)cc1)C(C)C [Example 40, 4-(2-diisopropylaminoethylamino)benzenesulfonic acid 2-(8-aminooctanoylamino)benzothiazol-6-yl ester]
2950 nM	189 nM	112 nM	CC(C)N(CCNc1ccc(S(=O)(=O)Oc2ccc3nc(NC(=O)CCCCCCN)sc3c2)cc1)C(C)C [Example 52, 4-(2-diisopropylaminoethylamino)benzenesulfonic acid 2-(7-aminoheptanoylamino)benzothiazol-6-yl ester hydrochloride]
2460 nM	539 nM	227 nM	CC(C)NCCNc1ccc(S(=O)(=O)Oc2ccc3nc(NC(=O)CCCCCCCN)sc3c2)cc1 [Example 21, 4-(2-isopropylaminoethylamino)benzenesulfonic acid 2-(8-aminooctanoylamino)benzothiazol-6-yl ester hydrochloride]
140 nM	70 nM	43 nM	CCCC(=O)Nc1nc2ccc(OS(=O)(=O)c3ccc(NCCN(C(C)C)C(C)C)cc3)cc2s1 [Example 79, 4-(2-diisopropylaminoethylamino)benzenesulfonic acid 2-butyrylaminobenzothiazol-6-yl ester hydrochloride]
